Laboratory results: ChEMBL document CHEMBL2202954, “The effect of PLC-γ2 inhibitors on the growth of human tumour cells” (2012)

Legend:
Format in all cases: functional
BT-549 = assay: Cytotoxicity against human BT549 cells assessed as cellular growth at 10 uM by SRB assay
Hs-578T = assay: Cytotoxicity against human Hs578T cells assessed as cellular growth at 10 uM by SRB assay
PC-3 = assay: Cytotoxicity against human PC3 cells assessed as cellular growth at 10 uM by SRB assay
SN12C = assay: Cytotoxicity against human SN12C cells assessed as cellular growth at 10 uM by SRB assay
RXF 393 = assay: Cytotoxicity against human RXF393 cells assessed as cellular growth at 10 uM by SRB assay
CAKI-1 = assay: Cytotoxicity against human Caki1 cells assessed as cellular growth at 10 uM by SRB assay
A498 = assay: Cytotoxicity against human A498 cells assessed as cellular growth at 10 uM by SRB assay
UACC-62 = assay: Cytotoxicity against human UACC62 cells assessed as cellular growth at 10 uM by SRB assay
UACC-257 = assay: Cytotoxicity against human UACC257 cells assessed as cellular growth at 10 uM by SRB assay
M14 = assay: Cytotoxicity against human M14 cells assessed as cellular growth at 10 uM by SRB assay
U-251 = assay: Cytotoxicity against human U251 cells assessed as cellular growth at 10 uM by SRB assay
SF-268 = assay: Cytotoxicity against human SF268 cells assessed as cellular growth at 10 uM by SRB assay
SW-620 = assay: Cytotoxicity against human SW620 cells assessed as cellular growth at 10 uM by SRB assay
KM12 = assay: Cytotoxicity against human KM12 cells assessed as cellular growth at 10 uM by SRB assay
HCT-15 = assay: Cytotoxicity against human HCT15 cells assessed as cellular growth at 10 uM by SRB assay
HCC 2998 = assay: Cytotoxicity against human HCC2998 cells assessed as cellular growth at 10 uM by SRB assay
NCI-H522 = assay: Cytotoxicity against human NCI-H522 cells assessed as cellular growth at 10 uM by SRB assay
NCI-H23 = assay: Cytotoxicity against human NCI-H23 cells assessed as cellular growth at 10 uM by SRB assay
RPMI-8226 = assay: Cytotoxicity against human RPMI8226 cells assessed as cellular growth at 10 uM by SRB assay
CCRF-CEM = assay: Cytotoxicity against human CCRF-CEM cells assessed as cellular growth at 10 uM by SRB assay

| Structure (SMILES) | Activity (BT-549) | Activity (Hs-578T) | Activity (PC-3) | Activity (SN12C) | Activity (RXF 393) | Activity (CAKI-1) | Activity (A498) | Activity (UACC-62) | Activity (UACC-257) | Activity (M14) | Activity (U-251) | Activity (SF-268) | Activity (SW-620) | Activity (KM12) | Activity (HCT-15) | Activity (HCC 2998) | Activity (NCI-H522) | Activity (NCI-H23) | Activity (RPMI-8226) | Activity (CCRF-CEM) |
| --- | --- | --- | --- | --- | --- | --- | --- | --- | --- | --- | --- | --- | --- | --- | --- | --- | --- | --- | --- | --- |
| O=C(NCCc1ccc(Cl)cc1)c1[nH]c2ccccc2c1Cl | 111.29% | 94.53% | 88.9% | 97.33% | 113.7% | 96.12% | 77.04% | 81.86% | 100.48% | 98.43% | 100.14% | 97.34% | 92.87% | 94.49% | 101.72% | 102.32% | 101.96% | 92.75% | 96.69% | 108.31% |
| Cc1ccc(NC(=O)c2sc3nc4c(cc3c2N)C(=O)CCC4)cc1Cl | 114.66% | 112.53% | 103.74% | 119.21% | 117.2% | 85.93% | 97.9% | 108.17% | 95.07% | 121.85% | 97.87% | 115.11% | 112.63% | 115.57% | 97.31% | 102.57% | 96.14% | 100.21% | 104.81% | 104.3% |
| COc1ccc2[nH]c(C(=O)NCc3ccccc3)cc2c1 | 104.33% | 112.57% | 102.32% | 97.3% | 101.97% | 87.15% | 92.89% | 91.05% | 103.04% | 104.15% | 98.45% | 114.89% | 107.28% | 111.34% | 94.58% | 104.4% | 90.46% | 89.11% | 90.52% | 85.19% |
| Cc1ccc(NC(=O)c2sc3nc(-c4cccs4)ccc3c2N)cc1C | 133.54% | 110.72% | 101.43% | 100.59% | 123.31% | 131.91% | 88.5% | 89.05% | 106.65% | 114.64% | 101.86% | 107.88% | 101.23% | 106.51% | 109.09% | 105.35% | 100.77% | 111.92% | 103.98% | 97.34% |
| O=C1N=C(c2ccccc2)S/C1=C\c1ccc2c(c1)OCO2 | 108.62% | 94.3% | 85.65% | 94.15% | 115.74% | 101.66% | 80.95% | 91.01% | 92.39% | 111.64% | 90.93% | 95.75% | 89.42% | 92.95% | 101.73% | 118.49% | 105.96% | 114.7% | 92.67% | 90.34% |
| COc1ccc2nc(NC(=O)c3ccc(F)cc3)sc2c1 | 104.05% | 114.71% | 88.31% | 112.11% | 110.56% | 79.13% | 85.54% | 88.71% | 97.45% | 106.56% | 98.75% | 106.57% | 101.19% | 93.29% | 85.45% | 87.56% | 75.43% | 85.96% | 87.06% | 91.13% |
| O=S(=O)(Oc1ccc(-c2cnc3ccccc3n2)cc1)c1ccc2ccccc2c1 | 122.04% | 105.04% | 87.31% | 92.04% | 110% | 105.66% | 85.21% | 82.67% | 114.11% | 100.37% | 104.05% | 104.06% | 100.52% | 101.08% | 115.04% | 107.48% | 86.38% | 100.37% | 89.09% | 90.35% |
| Cc1c(OCC(=O)c2ccccc2)ccc2c1oc(=O)c1ccccc12 | 120.42% | 103.5% | 90% | 101.41% | 116.6% | 99.74% | 91.47% | 98.05% | 111.79% | 118.87% | 98.92% | 100.71% | 95.18% | 97.66% | 107.13% | 117.13% | 110.46% | 109.71% | 107.85% | 95.27% |
| O=C(Nc1ccc(S(=O)(=O)Nc2nccs2)cc1)c1cccs1 | 114.16% | 122.2% | 113.66% | 103.07% | 110.47% | 99.02% | 114.15% | 104.61% | 102.54% | 110.69% | 101.85% | 114.27% | 111.55% | 114.86% | 104.67% | 108.36% | 93.79% | 108.72% | 107.43% | 89.52% |
| COc1ccc(S(=O)(=O)n2ccc(-c3ccc4c(c3)CCC(C)(C)O4)n2)cc1 | 65.47% | 97.76% | 78.05% | 97.48% | 110.14% | 63.3% | 89.14% | 50.48% | 57.41% | 86.46% | 84.18% | 94.69% | 90.28% | 81.91% | 97.58% | 88.92% | 55.57% | 59.58% | 49.25% | 58.86% |
